pIC50: −log10 of the molar value. Counter-ions that a name gives are not always drawn. Like-named read-outs stand apart in the source and are kept apart here. Some results are limits rather than exact numbers.

The target of assay [1] is menin/MLL (terbium chelate-labeled menin, FITC-MBM1 peptide) (Homo sapiens (Human), UniProt O00255). Kind of assay: Menin/MLL homogenous time-resolved fluorescence (HTRF) assay.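 Note: IC50 from percent inhibition of HTRF signal, normalized between wells without competitor and wells with a saturating competitor that displaces FITC-MBM1 from His-tagged menin.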 It is filed as binding.
menin/MLL (terbium chelate-labeled menin, FITC-MBM1 peptide), sequence (O00255 other isoform, or with tags, fused parts or gaps): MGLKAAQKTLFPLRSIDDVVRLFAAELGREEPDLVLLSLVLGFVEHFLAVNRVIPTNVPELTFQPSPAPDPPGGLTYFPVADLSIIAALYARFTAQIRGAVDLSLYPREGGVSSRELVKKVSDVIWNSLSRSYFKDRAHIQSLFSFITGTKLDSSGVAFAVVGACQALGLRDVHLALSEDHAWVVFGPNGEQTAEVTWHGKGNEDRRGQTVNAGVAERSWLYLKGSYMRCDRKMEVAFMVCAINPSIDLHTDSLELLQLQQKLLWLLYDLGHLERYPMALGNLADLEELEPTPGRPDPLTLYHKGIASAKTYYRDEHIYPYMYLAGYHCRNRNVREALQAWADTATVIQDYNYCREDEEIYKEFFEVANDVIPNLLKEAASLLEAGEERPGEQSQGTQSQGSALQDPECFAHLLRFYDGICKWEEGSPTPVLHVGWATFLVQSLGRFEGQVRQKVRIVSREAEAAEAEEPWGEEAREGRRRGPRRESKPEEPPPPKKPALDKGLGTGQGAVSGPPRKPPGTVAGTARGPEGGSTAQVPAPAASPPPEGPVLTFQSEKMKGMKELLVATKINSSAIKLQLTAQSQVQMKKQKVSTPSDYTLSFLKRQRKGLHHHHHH
The subject of a further assay is MOLM14 cells. Kind of assay: Proliferation assay (spheroid growth, 8 days), MOLM14.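 Note: spheroid size read as confluence by live-cell imaging, compounds added at a range of concentrations with 0.3% DMSO, DMSO-treated wells = 0%, highest reference dose = low control.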 It is filed as cell-based, human. Conditions: MOLM14, 8 days, read-out: spheroid assay_OneTime MOLM14 IC50.
A further assay relates to OCI-AML3 cells. Description: Proliferation assay (spheroid growth, 8 days), OCI-AML3. It is filed as cell-based, human. Conditions: OCI-AML3, 8 days. The protocol: The anti-proliferative effect of menin/MLL protein/protein interaction inhibitor test compounds was assessed in human leukemia cell lines. The cell line MOLM14 harbors a MLL translocation and expresses the MLL fusion protein MLL-AF9, respectively, as well as the wildtype protein from the second allele. OCI-AML3 cells that carry the NPM1c gene mutation were also tested. […] KO-52 was used as a control cell line containing two MLL (KMT2A) wildtype alleles in order to exclude compounds that display general cytotoxic effects.
KO-52 and OCI-AML3 cell lines were propagated in alpha-MEM (Sigma Aldrich) supplemented with 20% heat-inactivated fetal bovine serum (HyClone), 2 mM L-glutamine (Sigma Aldrich) and 50 μg/ml gentamycin (Gibco).
In order to assess the anti-proliferative effects, 200 MOLM14 cells, 200 OCI-AML3 cells or 300 KO-52 cells were seeded in 200 μl media per well in […] round bottom, ultra-low attachment plates (Costar, catalogue number 7007). Cell seeding numbers were chosen based on growth curves to ensure linear growth throughout the experiment. Test compounds were added at different concentrations and the DMSO content was normalized to 0.3%. Cells were incubated for 8 days at 37° C. and 5% CO2. Spheroid like growth was measured in real-time by live-cell imaging (IncuCyteZOOM, Essenbio, 4× objective) acquiring images at day 8. Confluence (%) as a measure of spheroid size was determined using an integrated analysis tool.
In order to determine the effect of the test compounds over time, the confluence in each well as a measure of spheroid size, was calculated. Confluence of the highest dose of a reference compound was used as baseline for the LC (Low control) and the confluence of DMSO treated cells was used as 0% cytotoxicity (High Control, HC).
GraphPad Prism(version 7.00) was used to calculate the IC50. Dose-response equation was used for the plot of % Effect vs Log 10 compound concentration with a variable slope and fixing the maximum to 100% and the minimum to 0%.

In a further assay the test system is MEIS1 mRNA. Description: MEIS1 mRNA expression assay (Quantigene Singleplex) in MOLM14 cells.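 Note: MEIS1 transcript levels read by probe hybridization and normalized to RPL28 mRNA, with IC50 fitted to fold changes across a rising compound concentration series.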 It is filed as cell-based, human. Conditions: 48 hours incubation.
The mark [2] stands for this setting: HTRF-30 min incubation IC50, 30 min incubation.
Setting [3] is: read-out: HTRF-30 min incubation IC50, 30 min incubation.

For `CCN(C)C[C@H](O)C[C@@H](C(C)C)N1CC2(CCN(c3ncnnc3Oc3ccc(F)cc3C(=O)N(CC)C(C)C)C2)C1` (relative stereo) [Compound 347, N-ethyl-2-((5-(2-((3*S,5R)-6-(ethyl(methyl)amino)-5-hydroxy-2-methylhexan-3-yl)-2,6-diazaspiro[3.4]octan-6-yl)-1,2,4-triazin-6-yl)oxy)-5-fluoro-N-isopropylbenzamide formate], the pIC50 in assay [1] (setting [2]) was 7.92; in the assay with MOLM14 cells (Homo sapiens, MOLM-14, […]), less than 6.03; in the assay on OCI-AML3 cells (Homo sapiens, OCI-AML-3, […]) it was 5.30; in the assay with MEIS1 mRNA (Homo sapiens, MOLM-14, 48 h), less than 6.00.
For `CC(C)[C@H](CCCN(C)C)N1CC2(CCN(c3ccnnc3Oc3ccc(F)cc3C(=O)N(C(C)C)C(C)C)C2)C1` (single isomer, unassigned) [Compound 76, (*S)-2-((4-(2-(6-(dimethylamino)-2-methylhexan-3-yl)-2,6-diazaspiro[3.4]octan-6-yl)pyridazin-3-yl)oxy)-5-fluoro-N,N-diisopropylbenzamide], the pIC50 in assay [1] (setting [3]) was 8.59; in the assay on MOLM14 cells it was 6.47; with OCI-AML3 cells, 5.62.
For the molecule `CCN(C(=O)c1cc(F)ccc1Oc1nncnc1N1CCC2(C1)CN([C@@H](CCCCN)C(C)C)C2)C(C)C` (single isomer, unassigned) [Compound 210, (*S)-2-((5-(2-(7-amino-2-methylheptan-3-yl)-2,6-diazaspiro[3.4]octan-6-yl)-1,2,4-triazin-6-yl)oxy)-N-ethyl-5-fluoro-N-isopropylbenzamide], the pIC50 is 8.25 in assay [1] (setting [2]); less than 6.03 with MOLM14 cells (Homo sapiens, MOLM-14, […]); 5.33 with OCI-AML3 cells (Homo sapiens, OCI-AML-3, […]); less than 6.00 in the assay with MEIS1 mRNA (Homo sapiens, MOLM-14, 48 h).
For the molecule `CCN(C(=O)c1cc(F)ccc1Oc1nncnc1N1CCC2(C1)CN([C@@H](CCO)C(C)C)C2)C(C)C` (single isomer, unassigned) [Compound 215, (*S)—N-ethyl-5-fluoro-2-((5-(2-(1-hydroxy-4-methylpentan-3-yl)-2,6-diazaspiro[3.4]octan-6-yl)-1,2,4-triazin-6-yl)oxy)-N-isopropylbenzamide], the pIC50 in assay [1] (setting [3]) is 7.05; with MOLM14 cells it was 5.83; with OCI-AML3 cells, 5.03; in the assay on MEIS1 mRNA, less than 6.00.
For the molecule `CCN(C(=O)c1cc(F)ccc1Oc1nncnc1N1CCC2(C1)CN([C@@H](CCN(C)C)C(C)C)C2)C(C)C` (single isomer, unassigned) [Compound 225, (*S)-2-((5-(2-(1-(dimethylamino)-4-methylpentan-3-yl)-2,6-diazaspiro[3.4]octan-6-yl)-1,2,4-triazin-6-yl)oxy)-N-ethyl-5-fluoro-N-isopropylbenzamide fumarate], the pIC50 in assay [1] (setting [2]) is 8.08; with MOLM14 cells (Homo sapiens, MOLM-14, […]), less than 6.03; in the assay with OCI-AML3 cells (Homo sapiens, OCI-AML-3, […]), 5.15; with MEIS1 mRNA (Homo sapiens, MOLM-14, 48 h), less than 6.00.
Consider `CCN(C(=O)c1cc(F)ccc1Oc1nncnc1N1CCC2(C1)CN(C(C(C)C)C(C)CCN(C)CCOC)C2)C(C)C` (single isomer, unassigned) [Compound 265, N-ethyl-5-fluoro-N-isopropyl-2-((5-(2-(6-((2-methoxyethyl)(methyl)amino)-2,4-dimethylhexan-3-yl)-2,6-diazaspiro[3.4]octan-6-yl)-1,2,4-triazin-6-yl)oxy)benzamide (mixture of R,S and S,R; or mixture of RR and S,S) fumarate], for which the pIC50 was 9.54 in assay [1] (setting [2]); 7.55 in the assay on MOLM14 cells (Homo sapiens, MOLM-14, […]); 7.21 in the assay with OCI-AML3 cells (Homo sapiens, OCI-AML-3, […]).
For the molecule `CCN(C(=O)c1cc(F)ccc1Oc1nncnc1N1CCC2(C1)CN([C@H](C[C@H](CN(C)C)OC)C(C)C)C2)C(C)C` (single isomer, unassigned) [Compound 314, 2-((5-(2-((3*R,5*R)-6-(dimethylamino)-5-methoxy-2-methylhexan-3-yl)-2,6-diazaspiro[3.4]octan-6-yl)-1,2,4-triazin-6-yl)oxy)-N-ethyl-5-fluoro-N-isopropylbenzamide fumarate], the pIC50 in assay [1] (setting [2]) was 8.82; in the assay with MOLM14 cells (Homo sapiens, MOLM-14, […]), 6.52; in the assay on MEIS1 mRNA (Homo sapiens, MOLM-14, 48 h), 6.80.
For `CCN(CC)C[C@@H](O)C[C@H](C(C)C)N1CC2(CCN(c3ncnnc3Oc3ccc(F)cc3C(=O)N(CC)C(C)C)C2)C1` (single isomer, unassigned) [Compound 337, 2-(5-(2-((3*R,5*S)-6-(diethylamino)-5-hydroxy-2-methylhexan-3-yl)-2,6-diazaspiro[3.4]octan-6-yl)-1,2,4-triazin-6-yl)oxy)-N-ethyl-5-fluoro-N-isopropylbenzamide fumarate], the pIC50 in assay [1] (setting [2]) is 8.34; in the assay with MEIS1 mRNA (Homo sapiens, MOLM-14, 48 h), less than 6.00.
Take `CCN(C)C[C@@H](O)C[C@@H](C(C)C)N1CC2(CCN(c3ncnnc3Oc3ccc(F)cc3C(=O)N(CC)C(C)C)C2)C1` (single isomer, unassigned) [Compound 343, N-ethyl-2-((5-(2-((3*S,5S)-6-(ethyl(methyl)amino)-5-hydroxy-2-methylhexan-3-yl)-2,6-diazaspiro[3.4]octan-6-yl)-1,2,4-triazin-6-yl)oxy)-5-fluoro-N-isopropylbenzamide fumarate]: the pIC50 in assay [1] (setting [2]) is approximately 8.41; in the assay with MEIS1 mRNA (Homo sapiens, MOLM-14, 48 h), 6.28.
For `CC(C)[C@H](C[C@H](O)CN(C)C)N1CC2(CCN(c3ncnnc3Oc3ccc(F)cc3C(=O)N(C(C)C)C(C)C)C2)C1` (single isomer, unassigned) [Compound 369, 2-((5-(2-((3*S,5*S)-6-(dimethylamino)-5-hydroxy-2-methylhexan-3-yl)-2,6-diazaspiro[3.4]octan-6-yl)-1,2,4-triazin-6-yl)oxy)-5-fluoro-N,N-diisopropylbenzamide fumarate], the pIC50 in assay [1] (setting [2]) is 8.74; in the assay on MOLM14 cells (Homo sapiens, MOLM-14, […]), 6.38; with MEIS1 mRNA (Homo sapiens, MOLM-14, 48 h), approximately 6.44.
In assay [1] (setting [2]), `CCCN(C)C[C@@H](O)C[C@@H](C(C)C)N1CC2(CCN(c3ncnnc3Oc3ccc(F)cc3C(=O)N(CC)C(C)C)C2)C1` (single isomer, unassigned) [Compound 387, N-ethyl-5-fluoro-2-((5-(2-((3*S,5*S)-5-hydroxy-2-methyl-6-(methyl(propyl)amino)hexan-3-yl)-2,6-diazaspiro[3.4]octan-6-yl)-1,2,4-triazin-6-yl)oxy)-N-isopropylbenzamide fumarate] showed a pIC50 of 8.02.
The same measure, in the same setting: the figure for `CCN(C)C[C@@H](O)C[C@@H](C(C)C)N1CC2(CCN(c3ncnnc3Oc3ccc(F)cc3C(=O)N(C(C)C)C(C)C)C2)C1` (single isomer, unassigned) [Compound 392, 2-((5-(2-((3*S,5*S)-6-(ethyl(methyl)amino)-5-hydroxy-2-methylhexan-3-yl)-2,6-diazaspiro[3.4]octan-6-yl)-1,2,4-triazin-6-yl)oxy)-5-fluoro-N,N-diisopropylbenzamide fumarate] is 7.99.
In the case of `COCCN(C)CCC[C@H](C(C)C)N1CC2(CCN(c3ncnnc3Oc3ccc(F)cc3C(=O)N([13CH2][13CH3])[13CH]([13CH3])[13CH3])C2)C1.O=C(O)C(=O)O` [Compound 402], the pIC50 is 8.15 in the assay on MOLM14 cells (Homo sapiens, MOLM-14, […]) and 7.40 in the assay on OCI-AML3 cells (Homo sapiens, OCI-AML-3, […]).
For the molecule `CCN(C(=O)c1cc(F)ccc1Oc1nnc(OC)nc1N1CCC2(C1)CN([C@H](CCCN)C(C)C)C2)C(C)C` [Compound 407, (R)-2-((5-(2-(6-amino-2-methylhexan-3-yl)-2,6-diazaspiro[3.4]octan-6-yl)-3-methoxy-1,2,4-triazin-6-yl)oxy)-N-ethyl-5-fluoro-N-isopropylbenzamide formate], the pIC50 in assay [1] (setting [2]) was 10.07; in the assay on MEIS1 mRNA (Homo sapiens, MOLM-14, 48 h), 6.42.
For `COCCN(C)CCC[C@H](C(C)C)N1CC2(CCN(c3ncnnc3Oc3ccc(F)cc3C(=O)N(C)C(C)C)C2)C1` [Compound 415, (R)-5-fluoro-N-isopropyl-2-((5-(2-(6-((2-methoxyethyl)(methyl)amino)-2-methylhexan-3-yl)-2,6-diazaspiro[3.4]octan-6-yl)-1,2,4-triazin-6-yl)oxy)-N-methylbenzamide], the negative logarithm of the IC50 (pIC50) in assay [1] (setting [2]) was 10.08.
In the case of `CCN(C(=O)c1cc(F)ccc1Oc1nnc(OC)nc1N1CCC2(C1)CN([C@H](CCCN(C)CCOC)C(C)C)C2)C(C)C` [Compound 416, (R)-N-ethyl-5-fluoro-N-isopropyl-2-((3-methoxy-5-(2-(6-((2-methoxyethyl)(methyl)amino)-2-methylhexan-3-yl)-2,6-diazaspiro[3.4]octan-6-yl)-1,2,4-triazin-6-yl)oxy)benzamide formate], the pIC50 was approximately 10.46 in assay [1] (setting [2]) and 7.31 in the assay on MEIS1 mRNA (Homo sapiens, MOLM-14, 48 h).
As for “N-ethyl-(2-(((3-(2-(5 ethyl(methyl)amino)-5-methoxy-2-methylhexan-3-yl-2,&6-diazaspiro[3.4]octan-6-yl)-1,2,4-triazin-6-yl)oxy)-5-fluoro-N-isopropylbenzamide [Compound 313]”, the pIC50 was 8.70 in assay [1] (setting [3]) and approximately 6.59 with MEIS1 mRNA.

(Values after patent US12473295B2, “Substituted straight chain spiro derivatives” (Janssen Pharmaceutica NV, priority 2019, dated 2025).)
